From BindingDB's records for aid1799748 (Csar, 2012)

What follows are compounds tested against Urokinase-type plasminogen activator (Homo sapiens, UniProt P00749) (assay: Abbott uPA__Urokinase Human - Ki(uM)). Conditions: pH 7.4; 25 °C.

Compound | Ki [nM]
C=CCNC(=O)Nc1cccc2ccc(N)nc12 [uPa_30] | > 10000
Nc1ccc2nc(N)ccc2c1 [uPa_23] | > 104000
Nc1cnc2ccccc2n1 [uPa_1] | > 50000
CCOc1cc(OCC)c(OCC)cc1/C=C/c1cc(Br)c2cc(C(=N)N)ccc2c1 [uPa_38] | 777
CC(C)Oc1ccc2cc(C(=N)N)ccc2c1 [uPa_5] | 7280
CS(=O)(=O)n1cc(-c2cc(C(=O)Nc3ccccc3)cc3ccc(C(=N)N)cc23)cn1 [uPa_20] | 769
C#CCN(C)C(=O)c1ccc2ccc(N)nc2c1 [uPa_33] | > 100000
COC(=O)Nc1cc(C(=O)Nc2ccc(CN)cc2)cc2ccc(C(=N)N)cc12 [uPa_17] | 0.9
N=C(N)c1ccc2cc(C(=O)Nc3ccc4c(c3)C(c3ccccc3)=NCC4)ccc2c1 [uPa_29] | 290
N=C(N)c1ccc2cc(C#Cc3cccc(OC4CCCC4)c3)ccc2c1 [uPa_25] | 665
CN1CCc2ccc(C3CC3c3ccc4cc(C(=N)N)ccc4c3)cc2C1C1CCC1 (stereo not drawn) [uPa_41] | 42
N#CC(CCOc1cccc2ccc(N)nc12)(c1ccccc1)c1ccccc1 [uPa_16] | > 40000
COC(=O)Nc1ccc2nc(N)ccc2c1 [uPa_24] | > 50000
CN1CCc2ccc(C3CC3c3ccc4cc(C(=N)N)ccc4c3)cc2C1c1cccnc1 (stereo not drawn) [uPa_44] | 1250
Nc1cc2ccccc2cn1 | > 30000
COc1cc(C2CC2c2ccc3c(c2)C(C(C)C)N(C)CC3)cc2ccc(C(=N)N)cc12 (stereo not drawn) [uPa_42] | 94
COc1cc2ccc(C(=N)N)cc2c(OC)c1OC [uPa_2] | 8030

Compound | Ki [nM]
COC(=O)Nc1ccc2nc(C(=N)N)ccc2c1 [uPa_27] | > 50000
COC(=O)Nc1cc(C(=O)Nc2ccccc2)cc2ccc(C(=N)N)cc12 [uPa_36] | 18
COc1ccc2ccc(C(=N)N)cc2c1-c1cnn(C(C)C)c1 [uPa_11] | 4500
N=C(N)c1ccc2cc(C(=O)Nc3ccccc3)cc(-c3ncccn3)c2c1 [uPa_21] | 7850
N=C(N)c1ccc2cc(/C=C/CCc3cccnc3)cc(Br)c2c1 [uPa_32] | 3080
N=C(N)c1ccc2cc(C(=O)Nc3ccc4c(c3)C(C3CCCCC3)=NCC4)ccc2c1 [uPa_31] | 66
COc1cc(NC(=O)c2ccc3cc(C(=N)N)ccc3c2)cc(OC(C)C)c1 [uPa_28] | 33
N=C(N)c1ccc2cc(NS(=O)(=O)c3ccccc3)ccc2c1 [uPa_14] | 8700
N=C(N)NC(=O)c1nc(Cl)c(NCc2cc(Cl)cc(Cl)c2)nc1N [uPa_22] | 3570
CC(C)C1=NCCc2ccc(NC(=O)c3cc(Br)c4cc(C(=N)N)ccc4c3)cc21 [uPa_26] | 16
CN(CC#N)C(=O)c1ccc2ccc(N)nc2c1 [uPa_35] | > 100000
CN1CCc2ccc(/C=C/c3ccc4cc(C(=N)N)ccc4c3)cc2C1C1CCCCC1 (stereo not drawn) [uPa_40] | 223
N=C(N)NC(=O)c1ccc(Cl)c(S(N)(=O)=O)c1 [uPa_45] | > 100000
CC(C)CN(CC(C)C)C(=O)c1ccc2ccc(N)nc2c1 [uPa_34] | > 100000
CS(=O)(=O)Nc1cc(CCc2ccccc2)cc2ccc(C(=N)N)cc12 [uPa_37] | 1490
CC(C)C1c2cc(C3CC3c3cc(/C=C/C4CC4)c4cc(C(=N)N)ccc4c3)ccc2CCN1C (stereo not drawn) [uPa_43] | 9
